Test results: ChEMBL document CHEMBL3627634, “Synthesis of novel benzohydrazone-oxadiazole hybrids as β-glucuronidase inhibitors and molecular modeling studies” (Bioorg Med Chem, 2015)

Target: T1, Beta-glucuronidase (Bos taurus, UniProt A3KMY8)
T1 sequence (A3KMY8 whole entry): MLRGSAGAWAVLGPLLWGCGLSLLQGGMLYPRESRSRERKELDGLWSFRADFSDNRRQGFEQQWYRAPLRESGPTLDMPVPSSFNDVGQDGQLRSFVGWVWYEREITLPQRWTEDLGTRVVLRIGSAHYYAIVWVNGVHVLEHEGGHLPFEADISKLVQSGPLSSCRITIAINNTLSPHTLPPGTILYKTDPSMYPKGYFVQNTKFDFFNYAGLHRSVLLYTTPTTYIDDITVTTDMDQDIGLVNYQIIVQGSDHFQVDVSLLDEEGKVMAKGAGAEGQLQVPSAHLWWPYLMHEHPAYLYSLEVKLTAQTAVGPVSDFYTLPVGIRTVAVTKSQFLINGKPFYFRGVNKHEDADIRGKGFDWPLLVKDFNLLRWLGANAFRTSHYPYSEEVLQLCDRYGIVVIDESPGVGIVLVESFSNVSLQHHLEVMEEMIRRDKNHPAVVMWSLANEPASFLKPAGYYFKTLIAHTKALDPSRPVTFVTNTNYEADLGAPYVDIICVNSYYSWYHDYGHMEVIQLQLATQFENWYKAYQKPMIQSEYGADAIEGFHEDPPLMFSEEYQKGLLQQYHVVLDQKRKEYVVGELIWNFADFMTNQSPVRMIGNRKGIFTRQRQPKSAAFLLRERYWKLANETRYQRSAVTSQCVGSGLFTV
Experiment: Inhibition of bovine liver beta-glucuronidase using p-nitrophenyl-beta-D-glucuronide as substrate assessed as p-nitrophenol formation after 30 mins by multiplate reader analysis
Conditions: not given; call rule not given here

| SMILES | IC50 |
| --- | --- |
| Cc1ccccc1/C=N/NC(=O)c1ccc(-c2nnc(-c3ccccc3O)o2)cc1 | Not Active |
| O=C(N/N=C/c1ccccc1Cl)c1ccc(-c2nnc(-c3ccccc3O)o2)cc1 | Not Active |
| O=C(N/N=C/c1cccc(F)c1)c1ccc(-c2nnc(-c3ccccc3O)o2)cc1 | Not Active |
| O=C(N/N=C/c1cccnc1)c1ccc(-c2nnc(-c3ccccc3O)o2)cc1 | Not Active |
| Cc1ccc(/C=N/NC(=O)c2ccc(-c3nnc(-c4ccccc4O)o3)cc2)cc1 | Not Active |
| Cc1cccc(/C=N/NC(=O)c2ccc(-c3nnc(-c4ccccc4O)o3)cc2)c1 | Not Active |
| O=C(N/N=C/c1ccc(F)cc1)c1ccc(-c2nnc(-c3ccccc3O)o2)cc1 | Not Active |
| COc1ccccc1/C=N/NC(=O)c1ccc(-c2nnc(-c3ccccc3O)o2)cc1 | Not Active |
| O=C(N/N=C/c1ccccc1[N+](=O)[O-])c1ccc(-c2nnc(-c3ccccc3O)o2)cc1 | Not Active |
| O=C(N/N=C/c1ccncc1)c1ccc(-c2nnc(-c3ccccc3O)o2)cc1 | Not Active |
| O=C(N/N=C/c1cccc(Cl)c1)c1ccc(-c2nnc(-c3ccccc3O)o2)cc1 | Not Active |

Same assay, conditions: read-out: IC50

| SMILES | IC50 [µM] |
| --- | --- |
| COc1ccc(/C=N/NC(=O)c2ccc(-c3nnc(-c4ccccc4O)o3)cc2)cc1O | 7.14 |
| O=C(N/N=C/c1ccccc1F)c1ccc(-c2nnc(-c3ccccc3O)o2)cc1 | 108 |
| O=C(N/N=C/c1c(O)cc(O)cc1O)c1ccc(-c2nnc(-c3ccccc3O)o2)cc1 | 82.2 |
| O=C(N/N=C/c1ccccc1O)c1ccc(-c2nnc(-c3ccccc3O)o2)cc1 | 91.4 |
| O=C(N/N=C/c1ccc(O)cc1)c1ccc(-c2nnc(-c3ccccc3O)o2)cc1 | 18.5 |
| O=C(N/N=C/c1cc(O)c(O)cc1O)c1ccc(-c2nnc(-c3ccccc3O)o2)cc1 | 21.1 |
| O=C(N/N=C/c1ccccn1)c1ccc(-c2nnc(-c3ccccc3O)o2)cc1 | 42.3 |
| O=C(N/N=C/c1cc(O)ccc1O)c1ccc(-c2nnc(-c3ccccc3O)o2)cc1 | 15.1 |
| O=C(N/N=C/c1ccc(Cl)cc1)c1ccc(-c2nnc(-c3ccccc3O)o2)cc1 | 86.1 |
| O=C(N/N=C/c1ccc(O)c(O)c1)c1ccc(-c2nnc(-c3ccccc3O)o2)cc1 | 29.2 |
| O=C(N/N=C/c1cccc([N+](=O)[O-])c1)c1ccc(-c2nnc(-c3ccccc3O)o2)cc1 | 64.1 |
| COc1ccc(O)c(/C=N/NC(=O)c2ccc(-c3nnc(-c4ccccc4O)o3)cc2)c1 | 88.1 |
| O=C(N/N=C/c1ccc([N+](=O)[O-])cc1)c1ccc(-c2nnc(-c3ccccc3O)o2)cc1 | 44.2 |
| O=C(N/N=C/c1cccc(O)c1)c1ccc(-c2nnc(-c3ccccc3O)o2)cc1 | 34.5 |
